± gives the expanded uncertainty stated by the source.

A short description of this data set: activity coefficient (dimensionless); of the first substance listed, at infinite dilution; xn = mol fraction of the nth substance listed. The following applies: 101 kPa, Liquid, Chromatography, x1 = 0.

Regarding `CCCCCCC` [heptane] + CCCCCCCCCCCCCC(=O)O, the activity coefficient runs as follows: (314.1 K) 1.45 ± 0.12; (314.24 K) 1.47 ± 0.12; (333.38 K) 1.43 ± 0.12; (353.25 K) 1.4 ± 0.12; (353.3 K) 1.4 ± 0.12.

On to `CCCCCCC` [heptane] + CCCCCCCCCCCCCCCC(=O)O, for which the activity coefficient came out at 1.4 ± 0.12 (340.19 K), 1.38 ± 0.12 (348.01 K) and 1.37 ± 0.12 (358.22 K).

For `C=CCCCC` [hex-1-ene] + CCCCCCCCCC(=O)O, the activity coefficient runs as follows: (314.24 K) 1.56 ± 0.13; (333.26 K) 1.5 ± 0.13; (333.38 K) 1.49 ± 0.13; (353.3 K) 1.43 ± 0.12.

With `C=CCCCC` [hex-1-ene] + CCCCCCCCCCCC(=O)O, the activity coefficient is, setting by setting: (329.2 K) 1.39 ± 0.12; (343.39 K) 1.39 ± 0.12; (358.06 K) 1.34 ± 0.11.

On to `C=CCCCC` [hex-1-ene] + CCCCCCCCCCCCCC(=O)O, for which the activity coefficient by setting is: (314.24 K) 1.24 ± 0.1; (333.26 K) 1.22 ± 0.1; (333.38 K) 1.21 ± 0.1; (353.3 K) 1.18 ± 0.098.

For `C=CCCCC` [hex-1-ene] + CCCCCCCCCCCCCCCC(=O)O, the activity coefficient by setting is: (340.17 K) 1.17 ± 0.097; (348.01 K) 1.18 ± 0.098; (358.22 K) 1.2 ± 0.1.

In the case of `CCCCCC` [hexane] + CCCCCCCCCC(=O)O, the activity coefficient amounted to 1.75 ± 0.15 (314.1 K); 1.77 ± 0.15 (314.24 K); 1.73 ± 0.15 (333.26 K); 1.7 ± 0.14 (333.38 K); 1.65 ± 0.14 (353.3 K).

Take `CCCCCC` [hexane] + CCCCCCCCCCCC(=O)O: the activity coefficient reads like this: (314.24 K) 1.57 ± 0.13; (333.26 K) 1.53 ± 0.13; (333.38 K) 1.54 ± 0.13; (353.25 K) 1.5 ± 0.13.

Turning to `CCCCCC` [hexane] + CCCCCCCCCCCCCC(=O)O, the activity coefficient by setting is: (338.27 K) 1.34 ± 0.11; (348.3 K) 1.33 ± 0.11; (358.33 K) 1.33 ± 0.11.

In the case of `CCCCCC` [hexane] + CCCCCCCCCCCCCCCC(=O)O, the activity coefficient was found to be 1.29 ± 0.11 (340.19 K), 1.3 ± 0.11 (348.01 K) and 1.3 ± 0.11 (358.22 K).

Regarding `CO` [methanol] + CCCCCCCCCC(=O)O, the activity coefficient is, setting by setting: (314.24 K) 2.14 ± 0.18; (333.38 K) 1.84 ± 0.16; (353.08 K) 1.46 ± 0.12; (353.3 K) 1.57 ± 0.13.

For the compound `CO` [methanol] + CCCCCCCCCCCC(=O)O, the activity coefficient runs as follows: (314.1 K) 1.81 ± 0.15; (328.82 K) 1.9 ± 0.16; (333.26 K) 1.67 ± 0.14; (343.65 K) 1.66 ± 0.14; (353.3 K) 1.58 ± 0.13.

For the compound `CO` [methanol] + CCCCCCCCCCCCCC(=O)O, the activity coefficient amounted to 1.92 ± 0.17 (314.24 K); 1.73 ± 0.15 (333.26 K); 1.71 ± 0.15 (333.38 K); 2 ± 0.17 (338.29 K); 1.56 ± 0.13 (353.3 K); 1.6 ± 0.14 (358.31 K).

On to `CO` [methanol] + CCCCCCCCCCCCCCCC(=O)O, for which the activity coefficient reads like this: (340.17 K) 2.09 ± 0.18; (347.93 K) 1.94 ± 0.17; (358.23 K) 1.8 ± 0.15.

With `CCCO` [propan-1-ol] + CCCCCCCCCC(=O)O, the activity coefficient runs as follows: (314.1 K) 1.89 ± 0.16; (314.24 K) 1.92 ± 0.17; (333.26 K) 1.57 ± 0.13; (333.38 K) 1.6 ± 0.14; (353.25 K) 1.41 ± 0.12; (353.3 K) 1.35 ± 0.12.

Regarding `CCCO` [propan-1-ol] + CCCCCCCCCCCC(=O)O, the activity coefficient reads like this: (314.1 K) 1.76 ± 0.15; (314.24 K) 1.78 ± 0.15; (333.26 K) 1.57 ± 0.13; (333.38 K) 1.6 ± 0.14; (353.25 K) 1.43 ± 0.12; (353.3 K) 1.43 ± 0.12.

With `CCCO` [propan-1-ol] + CCCCCCCCCCCCCC(=O)O, the activity coefficient worked out at 1.61 ± 0.14 (314.1 K); 1.65 ± 0.14 (314.24 K); 1.52 ± 0.13 (333.26 K); 1.51 ± 0.13 (333.38 K); 1.37 ± 0.12 (353.25 K); 1.37 ± 0.12 (353.3 K).

For the compound `CCCO` [propan-1-ol] + CCCCCCCCCCCCCCCC(=O)O, the activity coefficient came to 1.74 ± 0.15 (340.19 K), 1.63 ± 0.14 (348.01 K) and 1.5 ± 0.13 (358.32 K).

Turning to `CC(C)O` [propan-2-ol] + CCCCCCCCCC(=O)O, the activity coefficient came out at 1.56 ± 0.13 (314.1 K); 1.58 ± 0.13 (314.24 K); 1.35 ± 0.11 (333.26 K); 1.36 ± 0.11 (333.38 K); 1.2 ± 0.1 (353.25 K); 1.15 ± 0.097 (353.3 K).

For `CC(C)O` [propan-2-ol] + CCCCCCCCCCCC(=O)O, the activity coefficient reads like this: (314.1 K) 1.5 ± 0.13; (314.24 K) 1.53 ± 0.13; (333.26 K) 1.33 ± 0.11; (333.38 K) 1.37 ± 0.12; (353.25 K) 1.22 ± 0.1; (353.3 K) 1.24 ± 0.1.

Regarding `CC(C)O` [propan-2-ol] + CCCCCCCCCCCCCC(=O)O, the activity coefficient reads like this: (314.1 K) 1.39 ± 0.12; (314.24 K) 1.42 ± 0.12; (333.26 K) 1.3 ± 0.11; (333.38 K) 1.3 ± 0.11; (353.25 K) 1.19 ± 0.099; (353.3 K) 1.19 ± 0.099.

Turning to `CC(C)O` [propan-2-ol] + CCCCCCCCCCCCCCCC(=O)O, the activity coefficient is, setting by setting: (340.19 K) 1.47 ± 0.12; (348.01 K) 1.41 ± 0.12; (358.32 K) 1.29 ± 0.11.

As for `Cc1ccccc1` [toluene] + CCCCCCCCCC(=O)O, the activity coefficient stood at 1.15 ± 0.095 (314.1 K); 1.17 ± 0.097 (314.24 K); 1.12 ± 0.093 (333.26 K); 1.12 ± 0.092 (333.38 K); 1.14 ± 0.095 (353.25 K); 1.16 ± 0.096 (353.3 K).

`Cc1ccccc1` [toluene] + CCCCCCCCCCCC(=O)O: the activity coefficient by setting is: (314.1 K) 1.06 ± 0.088; (314.24 K) 1.08 ± 0.089; (333.26 K) 1.07 ± 0.088; (333.38 K) 1.04 ± 0.086; (353.3 K) 1.05 ± 0.087.

Regarding `Cc1ccccc1` [toluene] + CCCCCCCCCCCCCC(=O)O, the activity coefficient (338.27 K) is 0.926 ± 0.076, the activity coefficient (338.29 K) amounted to 1.01 ± 0.083, the activity coefficient (348.2 K) was 0.958 ± 0.079 and the activity coefficient (358.33 K) turned out to be 0.93 ± 0.077.

Turning to `Cc1ccccc1` [toluene] + CCCCCCCCCCCCCCCC(=O)O, the activity coefficient reads like this: (340.19 K) 0.934 ± 0.077; (348.01 K) 0.935 ± 0.077; (358.22 K) 0.934 ± 0.077.

On to `ClC=C(Cl)Cl` [trichloroethene] + CCCCCCCCCC(=O)O, for which the activity coefficient (314.1 K) was 1.05 ± 0.086; the activity coefficient (314.24 K) amounted to 1.04 ± 0.085; the activity coefficient (333.26 K) worked out at 1 ± 0.082; the activity coefficient (333.38 K) worked out at 1.01 ± 0.083; the activity coefficient (353.08 K) turned out to be 0.945 ± 0.078; the activity coefficient (353.3 K) came out at 0.969 ± 0.08.

Take `ClC=C(Cl)Cl` [trichloroethene] + CCCCCCCCCCCC(=O)O: the activity coefficient (314.1 K) was found to be 0.952 ± 0.078; the activity coefficient (314.24 K) is 0.967 ± 0.079; the activity coefficient (333.26 K) came to 0.944 ± 0.078; the activity coefficient (333.38 K) came to 0.951 ± 0.078; the activity coefficient (353.25 K) turned out to be 0.933 ± 0.077.

Source of the values: the NIST ThermoML archive (doi:10.1016/j.jct.2012.06.009).
